{"source": "patent US20150219543A1", "about": "“CELL EVALUATION METHOD” (HAMAMATSU PHOTONICS K.K., priority 2014, published 2015)", "tested_on": "human living fibroblast-derived 253G1 iPS cell strain", "test": "Physical cell length (cell thickness) by reflecting quantitative phase microscope", "format": "cell-based", "settings": "253G1 iPS cells on feeder, medium with 12.5 μM retinoic acid from 2nd day after seeding, further cultured 4 days (differentiated cell)", "experimental": "On a 35 mm-diameter glass bottom dish with antireflection coating, a human living fibroblast-derived 253G1 iPS cell strain was seeded at 10-20 colonies/dish, and cultured on a feeder using a medium containing a final concentration of 4 ng/mL of human basic fibroblast growth factor (Primate ES Medium, ReproCELL Incorporated, Trade name: RCHEMD001). The size of one colony was approximately 200 μm. For the feeder cell, a mouse lung fibroblast cell was used. The cell was cultured until the 3rd day after the seeding. The medium was exchanged once a day.\nThe sample for differentiation of the iPS cell was transferred to a medium containing a final concentration of 4 ng/mL of human basic fibroblast growth factor and 12.5 μM of retinoic acid (Primate ES Medium) on the 2nd day after the seeding, and further cultured for 4 days. Generally, retinoic acid is used as a reagent for inducing differentiation. […]\nFor the cells in a 60 μm×80 μm visual field, three-dimensional data was obtained at intervals of 0.125 μm in horizontal direction and 0.32 μm in vertical direction using a reflecting quantitative phase microscope, and a tomographic image was produced from the obtained data. […] From the obtained bottom and surface shapes, a cell thickness (physical length) was measured to calculate a mean value."}
{"compound": "CC1=C(/C=C/C(C)=C/C=C/C(C)=C/C(=O)O)C(C)(C)CCC1", "note": "[retinoic acid]", "values": [{"measurement": "Mean value of the physical cell length", "result": 6.25, "unit": "μm"}]}
